Results on ten compounds are retold here after patent publication US20130303533A1, “AZOLOPYRIDINE AND AZOLOPYRIMIDINE COMPOUNDS AND METHODS OF USE THEREOF” (AMBIT BIOSCIENCES CORPORATION, priority 2010, published 2013).

Experiment [1] deals with T1, JAK3 (Homo sapiens, UniProt P52333).
T1 construct: made in house; host or cells: T7 phage display or HEK-293 cells (alternatives)
T1 sequence (P52333 1-1124): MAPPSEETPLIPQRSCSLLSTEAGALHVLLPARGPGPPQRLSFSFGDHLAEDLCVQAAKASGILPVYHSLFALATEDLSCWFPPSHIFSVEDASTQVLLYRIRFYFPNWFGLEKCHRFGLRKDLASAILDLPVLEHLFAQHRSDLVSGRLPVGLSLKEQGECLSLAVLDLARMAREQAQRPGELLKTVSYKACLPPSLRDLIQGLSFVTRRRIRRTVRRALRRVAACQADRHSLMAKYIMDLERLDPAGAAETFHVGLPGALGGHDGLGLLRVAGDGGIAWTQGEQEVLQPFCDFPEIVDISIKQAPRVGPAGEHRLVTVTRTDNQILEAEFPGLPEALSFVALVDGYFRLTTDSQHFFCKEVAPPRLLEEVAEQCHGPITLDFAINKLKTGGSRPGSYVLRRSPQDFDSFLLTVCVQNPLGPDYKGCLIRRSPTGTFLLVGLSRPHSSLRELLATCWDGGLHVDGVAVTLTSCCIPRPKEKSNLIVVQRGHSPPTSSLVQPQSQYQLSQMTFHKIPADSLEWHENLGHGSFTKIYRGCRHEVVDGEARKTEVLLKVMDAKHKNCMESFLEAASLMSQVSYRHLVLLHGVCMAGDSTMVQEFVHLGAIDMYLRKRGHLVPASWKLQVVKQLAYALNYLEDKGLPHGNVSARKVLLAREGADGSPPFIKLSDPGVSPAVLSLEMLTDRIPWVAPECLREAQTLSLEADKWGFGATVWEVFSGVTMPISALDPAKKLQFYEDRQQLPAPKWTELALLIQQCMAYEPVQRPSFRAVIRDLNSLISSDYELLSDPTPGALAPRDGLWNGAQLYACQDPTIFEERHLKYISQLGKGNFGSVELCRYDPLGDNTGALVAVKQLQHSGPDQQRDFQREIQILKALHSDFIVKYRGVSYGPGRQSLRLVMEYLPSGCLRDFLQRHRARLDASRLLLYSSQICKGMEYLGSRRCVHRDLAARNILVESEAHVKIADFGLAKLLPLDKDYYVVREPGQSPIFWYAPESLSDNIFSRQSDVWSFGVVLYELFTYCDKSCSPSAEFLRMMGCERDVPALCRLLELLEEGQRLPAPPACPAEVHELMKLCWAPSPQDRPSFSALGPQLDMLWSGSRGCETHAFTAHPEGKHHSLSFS
The experiment in a line: Competition binding assay to determine binding constants (Kd), JAK3. The text has this: (§1) Competition Binding Assay to Determine Binding Constants (Kd) of the Compounds Against JAK Kinases
(§2) Competition binding assays used herein were developed, validated and performed as described in Fabian et al., Nature Biotechnology 2005, 23, 329-336. Kinases were produced as fusions to T7 phage (See, Fabian et al. or WO04/015142) or alternatively, the kinases were expressed in HEK-293 cells and subsequently tagged with DNA for PCR detection (See, WO08/005,310). For the binding assays, streptavidin-coated magnetic beads were treated with biotinylated affinity ligands for 30 min at rt to generate affinity resins. The liganded beads were blocked with excess biotin and washed with blocking buffer (SeaBlock (Pierce), 1% BSA, 0.05% Tween 20, 1 mM DTT) to remove unbound ligand and to reduce non-specific binding. Binding reactions were assembled by combining kinase, liganded affinity beads, and test compounds in 1× binding buffer (20% SeaBlock, 0.17×PBS, 0.05% Tween 20, 6 mM DTT). Test compounds were prepared as 100× stocks in DMSO and rapidly diluted into the aqueous environment. DMSO was added to control assays lacking a test compound. Primary screen interactions were performed in polypropylene 384-well plates in a final volume of 34 μL, while Kd determinations were performed in polystyrene 96-well plates in a final volume of 135 μL. The assay plates were incubated at room temperature with shaking for 1 hour, long enough for binding reactions to reach equilibrium, and the affinity beads were washed extensively with wash buffer (1×PBS, 0.05% Tween 20) to remove unbound protein. The beads were then resuspended in elution buffer (1×PBS, 0.05% Tween 20, 2 μM non-biotinylated affinity ligand) and incubated at room temperature with shaking for 30 min. The kinase concentration in the eluates was measured by quantitative PCR. Each kinase was tested individually against each compound. Kds were determined using eleven serial threefold dilutions. A selectivity score, which is a quantitative measure of selectivity of a compound against a panel of enzymes, may be calculated for a compound by dividing the number of enzymes for which a compound meets a set criteria, (for example, a binding constant of 100 nM or less), by the total number of enzymes tested.

Experiment [2] has as its target T2, TYK2 (Homo sapiens, UniProt P29597).
T2 construct: made in house; host or cells: T7 phage display or HEK-293 cells (alternatives)
Briefly: Competition binding assay to determine binding constants (Kd), TYK2.
From the text: as §1, §2

Experiment [3] relates to GM-CSFR/JAK2/STAT5 pathway. The experiment in a line: CSTF-1 cell-based reporter assay. Particulars: Homo sapiens; csTF-1 cells, GM-CSF at 2 ng/mL, 4 hours, beta-lactamase reporter; read-out: Cell Assay: CS TF-1 reporter assay IC50. As to the method:
CSTF-1 Cell-Based Reporter Assay
CSTF-1 cells are derived from the human erythroleukemia cell line that is growth dependent on GM-CSF and has an intact GM-CSFR/JAK2/STAT5 pathway. The cell line contains stably integrated beta-lactamase reporter gene under the control of the […] (irf 1) response element recognized by the activated transcription factor STAT5. csTF-1 cells (Invitrogen K1219) were washed with assay media (97% OPTIMEM/0.5% dialyzed FBS/0.1 mM NEAA/1 mM Na pyr/P/S) and seeded in the same media at 5×10^5 cell/mL in T150 flask. After 16 hour incubation, cells were seeded at 2×10^5 cell/well in 50 μl volume, into Costar, clear bottom, 96-well assay plates. Serial dilutions of compounds were added to the plates with final DMSO concentration at 0.5% and GM-CSF at 2 ng/mL and the plates were then incubated at 30° C. and 5% CO2 for 4 hours. The plates were brought to room temperature before adding Substrate Mixture according to manufacturer's protocol (Invitrogen, Catalog #K1085). The assay plates containing the substrate mixture were incubated in the dark at room temperature for 2 hours. Blue and green fluorescence was measured with excitation at 409 nm and emission at 460 nm (for blue) and excitation at 409 nm and emission at 530 nm (for green) using Spectra Max Gemini EM.

The target of experiment [4] is T3, JAK2 (Homo sapiens, UniProt O60674).
T3 construct: made in house; host or cells: T7 phage display or HEK-293 cells (alternatives)
The experiment in a line: Competition binding assay to determine binding constants (Kd), JAK2.
From the text: as §1, §2

The structures appear in SMILES notation.

What is called Kd is the equilibrium constant for the complex coming apart. As a reminder, the IC50 is the point on the concentration scale where inhibition reaches its midpoint.

T2 sequence (P29597 whole entry): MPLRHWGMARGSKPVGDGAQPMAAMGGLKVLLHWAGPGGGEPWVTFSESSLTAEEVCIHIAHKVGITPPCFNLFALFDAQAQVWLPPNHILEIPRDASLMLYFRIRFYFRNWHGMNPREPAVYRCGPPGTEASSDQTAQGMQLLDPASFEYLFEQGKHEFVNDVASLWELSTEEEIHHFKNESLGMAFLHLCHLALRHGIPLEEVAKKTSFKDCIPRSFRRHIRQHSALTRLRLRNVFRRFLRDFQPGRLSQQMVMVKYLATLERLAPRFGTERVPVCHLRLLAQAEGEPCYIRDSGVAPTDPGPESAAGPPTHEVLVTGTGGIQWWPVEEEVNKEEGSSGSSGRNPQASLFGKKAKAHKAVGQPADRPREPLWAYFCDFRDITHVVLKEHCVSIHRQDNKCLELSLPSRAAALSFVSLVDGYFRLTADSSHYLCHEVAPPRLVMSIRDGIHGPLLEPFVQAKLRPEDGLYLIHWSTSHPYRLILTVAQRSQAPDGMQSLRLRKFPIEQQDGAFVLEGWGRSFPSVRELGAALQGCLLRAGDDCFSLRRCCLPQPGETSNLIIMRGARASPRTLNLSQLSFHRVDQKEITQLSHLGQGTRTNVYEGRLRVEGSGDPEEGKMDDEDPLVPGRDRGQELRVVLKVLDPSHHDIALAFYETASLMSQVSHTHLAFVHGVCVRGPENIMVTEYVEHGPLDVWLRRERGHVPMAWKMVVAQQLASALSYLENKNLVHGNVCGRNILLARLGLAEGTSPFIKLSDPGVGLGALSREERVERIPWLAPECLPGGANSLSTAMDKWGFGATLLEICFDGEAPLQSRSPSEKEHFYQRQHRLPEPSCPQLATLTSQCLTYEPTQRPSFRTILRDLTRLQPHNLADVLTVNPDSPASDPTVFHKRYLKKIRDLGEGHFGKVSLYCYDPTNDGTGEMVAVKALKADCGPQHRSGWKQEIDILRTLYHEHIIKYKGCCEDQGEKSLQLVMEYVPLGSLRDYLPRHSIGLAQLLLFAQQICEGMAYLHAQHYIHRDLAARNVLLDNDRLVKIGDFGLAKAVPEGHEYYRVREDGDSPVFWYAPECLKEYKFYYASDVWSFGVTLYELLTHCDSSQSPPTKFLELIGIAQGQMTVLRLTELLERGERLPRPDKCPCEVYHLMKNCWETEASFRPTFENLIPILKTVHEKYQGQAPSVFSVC
T3 sequence (O60674 whole entry): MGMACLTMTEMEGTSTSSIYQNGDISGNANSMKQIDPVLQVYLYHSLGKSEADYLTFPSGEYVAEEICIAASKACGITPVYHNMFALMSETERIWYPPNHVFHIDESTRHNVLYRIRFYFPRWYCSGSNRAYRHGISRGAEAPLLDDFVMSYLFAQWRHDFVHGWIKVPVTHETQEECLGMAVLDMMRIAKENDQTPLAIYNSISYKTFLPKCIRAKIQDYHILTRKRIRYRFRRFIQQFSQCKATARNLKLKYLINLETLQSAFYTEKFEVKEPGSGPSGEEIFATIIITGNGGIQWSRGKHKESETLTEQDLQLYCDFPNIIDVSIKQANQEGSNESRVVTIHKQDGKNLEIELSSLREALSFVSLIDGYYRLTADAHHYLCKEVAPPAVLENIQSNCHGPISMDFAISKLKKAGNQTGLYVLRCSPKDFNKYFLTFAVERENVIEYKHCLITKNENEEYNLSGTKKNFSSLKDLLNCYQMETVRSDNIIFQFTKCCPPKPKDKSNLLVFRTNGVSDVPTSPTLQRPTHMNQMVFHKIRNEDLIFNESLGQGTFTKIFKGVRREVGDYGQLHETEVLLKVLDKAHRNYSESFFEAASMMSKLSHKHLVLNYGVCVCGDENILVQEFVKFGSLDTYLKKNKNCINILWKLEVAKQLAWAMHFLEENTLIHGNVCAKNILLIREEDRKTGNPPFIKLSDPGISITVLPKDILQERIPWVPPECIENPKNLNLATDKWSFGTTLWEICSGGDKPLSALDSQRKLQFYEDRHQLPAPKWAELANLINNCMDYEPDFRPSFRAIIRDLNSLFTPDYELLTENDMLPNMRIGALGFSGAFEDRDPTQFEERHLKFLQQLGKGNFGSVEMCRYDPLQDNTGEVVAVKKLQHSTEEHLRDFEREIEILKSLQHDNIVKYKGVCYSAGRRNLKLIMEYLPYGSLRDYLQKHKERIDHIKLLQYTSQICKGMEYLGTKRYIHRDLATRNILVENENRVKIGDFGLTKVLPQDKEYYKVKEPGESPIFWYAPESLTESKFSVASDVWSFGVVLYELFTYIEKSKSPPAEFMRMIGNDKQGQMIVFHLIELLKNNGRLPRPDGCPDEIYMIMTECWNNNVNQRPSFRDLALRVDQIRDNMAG

Turning to `[O-][S+](c1ccc(F)cc1)c1nc(Nc2cc[nH]n2)c2cc[nH]c2n1` (racemic) [Example 1, (R,S)-2-(4-fluorophenylsulfinyl)-N-(1H-pyrazol-3-yl)-7H-pyrrolo[2,3-d]pyrimidin-4-amine], the Kd in experiment [1] is 10 to 100 nM; in experiment [2] it was at most 10 nM; in experiment [4], at most 1 nM. The concentration for half-maximal inhibition (IC50) in experiment [3] was at most 100 nM.
For the compound `Cc1cc(Nc2nc([S+]([O-])c3ccc(F)cc3)nc3[nH]ccc23)n[nH]1` (racemic) [Example 2, (R,S)-2-(4-fluorophenylsulfinyl)-N-(5-methyl-1H-pyrazol-3-yl)-7H-pyrrolo[2,3-d]pyrimidin-4-amine], the Kd in experiment [1] is at most 10 nM; in experiment [2] it was at most 10 nM; in experiment [4], at most 1 nM. Further, the IC50 in experiment [3] is at most 100 nM.
Regarding `Cn1ccc2c(Nc3cc[nH]n3)nc([S+]([O-])c3ccc(F)cc3)nc21` (racemic) [Example 5, (R,S)-2-(4-fluorophenylsulfinyl)-7-methyl-N-(1H-pyrazol-3-yl)-7H-pyrrolo[2,3-d]pyrimidin-4-amine], the Kd in experiment [1] is 10 to 100 nM; in experiment [2], at most 10 nM; in experiment [4], at most 1 nM. The 50% inhibitory concentration (IC50) in experiment [3] is at most 100 nM.
In the case of `Cc1cc(Nc2nc(C(O)c3ccc(F)cc3)nc3nn(C)cc23)n[nH]1` (racemic) [Example 22, (R,S)-(4-fluorophenyl)(2-methyl-4-(5-methyl-1H-pyrazol-3-ylamino)-2H-pyrazolo[3,4-d]pyrimidin-6-yl)methanol], the Kd in experiment [1] was 10 to 100 nM; in experiment [2], at most 10 nM; in experiment [4], at most 1 nM. Also, the IC50 in experiment [3] fell in the range of 100 to 500 nM.
In the case of `O=S(=O)(c1ccc(F)cc1)c1nc(Nc2cc[nH]n2)c2cc[nH]c2n1` [Example 3, 2-(4-fluorophenylsulfonyl)-N-(1H-pyrazol-3-yl)-7H-pyrrolo[2,3-d]pyrimidin-4-amine], the results for the Kd in experiment [1], in experiment [2] and in experiment [4] were at most 10 nM, at most 10 nM and at most 1 nM, respectively. For the same compound, in experiment [3], the IC50 is at most 100 nM.
`Cc1cc(Nc2nc(S(=O)(=O)c3ccc(F)cc3)nc3[nH]ccc23)n[nH]1` [Example 4, 2-(4-fluorophenylsulfonyl)-N-(5-methyl-1H-pyrazol-3-yl)-7H-pyrrolo[2,3-d]pyrimidin-4-amine]: the Kd in experiment [1] was at most 10 nM; in experiment [2] it was at most 10 nM; in experiment [4], at most 1 nM. Further, in experiment [3], the IC50 is at most 100 nM.
Turning to `Cn1ccc2c(Nc3cc[nH]n3)nc(S(=O)(=O)c3ccc(F)cc3)nc21` [Example 6, 2-(4-fluorophenylsulfonyl)-7-methyl-N-(1H-pyrazol-3-yl)-7H-pyrrolo[2,3-d]pyrimidin-4-amine], the dissociation constant Kd is at most 10 nM in experiment [1], at most 10 nM in experiment [2] and at most 1 nM in experiment [4]. Also, the half-maximal inhibitory concentration (IC50) in experiment [3] was at most 100 nM.
`CCn1ccc2c(Nc3cc(C)[nH]n3)nc(S(=O)(=O)c3ccc(F)cc3)nc21` [Example 7, 7-ethyl-2-(4-fluorophenylsulfonyl)-N-(5-methyl-1H-pyrazol-3-yl)-7H-pyrrolo[2,3-d]pyrimidin-4-amine]: the Kd was at most 10 nM in experiment [1], at most 10 nM in experiment [2] and at most 1 nM in experiment [4]. Moreover, the IC50 in experiment [3] is at most 100 nM.
On to `CCn1ccc2c(Nc3cc[nH]n3)nc(S(=O)(=O)c3ccc(F)cc3)nc21` [Example 8, 7-ethyl-2-(4-fluorophenylsulfonyl)-N-(1H-pyrazol-3-yl)-7H-pyrrolo[2,3-d]pyrimidin-4-amine], for which the Kd in experiment [1] was at most 10 nM; in experiment [2] it was at most 10 nM; in experiment [4], at most 1 nM. The IC50 in experiment [3] was at most 100 nM.
On to `Cc1cc(Nc2nc(S(=O)(=O)c3ccc(F)cc3)nc3c2ccn3C)n[nH]1` [Example 9, 2-(4-fluorophenylsulfonyl)-7-methyl-N-(5-methyl-1H-pyrazol-3-yl)-7H-pyrrolo[2,3-d]pyrimidin-4-amine], for which the figures for the Kd in experiment [1], in experiment [2] and in experiment [4] were at most 10 nM, at most 10 nM and at most 1 nM, respectively. Besides, the IC50 in experiment [3] is at most 100 nM.
